{
  "source": "patent US20220170930A1",
  "about": "“METHOD FOR SCREENING COMPOUND FOR TREATING OR PREVENTING POLYQ-RELATED NEURODEGENERATIVE DISEASES” (FUDAN UNIVERSITY, priority 2019, published 2022)",
  "key": {"[1]": {"target": "T1, mutant ATXN3 protein (ATXN3-Q74) (Homo sapiens, UniProt P54252, G306R/INS305QQQQQQQQQQQQQQQQQQQQQQQQQQQQQQQQQQQQQQQQQQQQQQQQQQQQQQQQQQQQQQQQ/V212M)", "T1 construct": "endogenous in cells; host or cells: SCA3 patient fibroblasts (Q74)", "T1 sequence (P54252 with tags, fused parts or gaps isoform P54252-1 with the stated changes)": "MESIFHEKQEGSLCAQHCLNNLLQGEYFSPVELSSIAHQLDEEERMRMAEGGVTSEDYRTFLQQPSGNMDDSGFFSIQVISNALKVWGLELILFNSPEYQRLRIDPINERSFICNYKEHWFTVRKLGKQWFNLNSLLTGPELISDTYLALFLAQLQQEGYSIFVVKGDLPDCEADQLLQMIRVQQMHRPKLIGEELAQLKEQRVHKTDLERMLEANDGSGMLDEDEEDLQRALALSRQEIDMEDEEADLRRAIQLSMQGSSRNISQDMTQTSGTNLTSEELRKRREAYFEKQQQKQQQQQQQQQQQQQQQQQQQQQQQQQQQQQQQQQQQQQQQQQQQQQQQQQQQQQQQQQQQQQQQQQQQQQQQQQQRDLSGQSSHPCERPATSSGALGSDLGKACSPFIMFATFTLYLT", "assay": "Western-blot mutant ATXN3 level in SCA3 patient fibroblasts", "assay_type": "cell-based", "settings": "100 nM (compound 4: 50 nM), 2 days", "description": "Then the levels of mutant ATXN3 protein (ATXN3-Q74, SEQ ID NO: 2) and wild-type ATXN3 protein (ATXN3-Q27, SEQ ID NO: 7) were determined by Western-blots (FIG. 26). […] Therefore, the compound of the present invention can be used to treat SCA3."}, "Q72-GFP": {"target": "Q72-GFP", "assay": "MST affinity with Q72-GFP", "quoted_text": "The affinity of the compound with full-length HTT and LC3B was verified with micro thermophoresis (MST) using Monolith NT.115 instrument from NanoTemper Technologies. The reaction buffer was 20 mM HEPES, pH 7.4, 150 mM NaCl."}, "GFP": {"tested_on": "GFP", "assay": "OI-RD affinity screening with GFP", "assay_type": "binding", "settings": "OI-RD difference images", "description": "To identify compound(s) that can selectively bind to proteins containing expanded polyglutamine, screening was conducted using a method similar to 1.1, except for that the target protein HTTexon1-Q72-MBP in step (1) of 1.1 was replaced with the polyQ-GFP protein prepared in 10.1, and the target protein HTTexon1-Q25-MBP in step (2) of 1.1 was replaced with GFP."}, "MBP-ATXN3-Q28": {"target": "T2, MBP-ATXN3-Q28 (Homo sapiens, UniProt P54252, INS305QQQQQQQQQQQQQQQQQQ)", "T2 construct": "His8 with TEV protease cleavage site; made in house; host or cells: Escherichia coli Rosetta(DE3)pLsyS", "T2 sequence (P54252 with tags, fused parts or gaps isoform P54252-4 with the stated changes)": "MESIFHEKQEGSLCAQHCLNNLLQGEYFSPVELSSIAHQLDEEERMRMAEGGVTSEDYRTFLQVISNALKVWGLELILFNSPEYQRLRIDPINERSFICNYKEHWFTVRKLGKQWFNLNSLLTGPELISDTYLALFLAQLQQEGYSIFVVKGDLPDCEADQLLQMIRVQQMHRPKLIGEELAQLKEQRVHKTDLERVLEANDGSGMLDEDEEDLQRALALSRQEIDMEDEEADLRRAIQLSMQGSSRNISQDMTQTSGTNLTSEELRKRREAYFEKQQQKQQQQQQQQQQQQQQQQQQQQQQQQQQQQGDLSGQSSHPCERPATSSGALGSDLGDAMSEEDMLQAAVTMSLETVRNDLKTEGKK", "assay": "MST affinity with MBP-ATXN3-Q28", "assay_type": "binding", "description": "Protein concentration was 500 nM."}, "HTTexon1-Q25-MBP": {"target": "T3, HTTexon1-Q25-MBP (Homo sapiens, UniProt P42858, DUP35-38)", "T3 construct": "made in house; host or cells: mammalian expression vector pTT5SH8Q2", "T3 sequence (P42858 with tags, fused parts or gaps DUP35-38)": "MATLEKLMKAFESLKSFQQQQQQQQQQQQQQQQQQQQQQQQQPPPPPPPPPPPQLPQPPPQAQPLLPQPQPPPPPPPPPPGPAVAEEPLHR", "assay": "OI-RD affinity with HTTexon1-Q25", "assay_type": "binding", "description": "OI-RD images before and after incubation with the target protein was obtained following the method in (1).\nThe difference images of the above steps (1), (2), (3) (the image after incubation minus the image before incubation) was analyzed respectively.\nEach compound was printed in triplicates on the microarray. 01-RD was used to measure the affinity reaction parameters of compounds with HTTexon1-Q72 and HTTexon1-Q25."}, "Q25-GFP": {"tested_on": "Q25-GFP", "assay": "OI-RD affinity screening with Q25-GFP", "assay_type": "binding", "settings": "OI-RD difference images", "from_the_text": "(1) PolyQ-GFP cDNA sequence (expressing Met-polyQ-GFP, wherein polyQ was Q72 or Q25) was synthesized de novo and subcloned into pcDNA vector. […] And the same method was used to obtain cells expressing Q53-GFP, cells expressing Q46-GFP, and cells expressing Q38-GFP."}},
  "data": [
    {"smiles": "O=C1Nc2ccc(I)cc2/C1=C/c1cc(Br)c(O)c(Br)c1", "note": "[compound 1, GW5074]", "values": [
      {"measurement": "mutant ATXN3 protein level", "setting": "[1]", "value": "A decrease in mutant ATXN3 protein level was observed"},
      {"measurement": "Kd", "setting": "Q72-GFP", "value": 3000, "unit": "nM"},
      {"measurement": "binding to GFP", "setting": "GFP", "value": "did not bind"},
      {"measurement": "binding affinity with normal ATXN3 protein (MBP-ATXN3-Q28)", "setting": "MBP-ATXN3-Q28", "value": "no binding affinity"},
      {"measurement": "binding to HTTexon1-Q25", "setting": "HTTexon1-Q25-MBP", "value": "do not bind"},
      {"measurement": "binding to Q25-GFP", "setting": "Q25-GFP", "value": "did not bind"}
    ]}
  ]
}
